From a melting point compilation (Tetko et al.)

melting point [°C] | SMILES
218 to 220 | Cc1cc(C(=O)O)ccc1I
262 to 264 | Sc1nc(-c2ccccc2)c[nH]1
108 to 110 | O=C(O)c1ccccc1Oc1cccc(Br)c1
99 to 101 | Cn1c(C2CC2)nc2cc(N)ccc21
73 to 77 | Nc1cc2c(cc1[N+](=O)[O-])OCCCO2
114 to 116 | O=[N+]([O-])c1ccc(Cl)c(S(=O)(=O)N2CCCC2)c1
206 to 208 | Nc1cc(Cl)c(NC(=O)c2ccsc2)c(Cl)c1
212 to 213 | Cn1c(C(=O)O)cc2ccccc21
204 to 206 | Nc1ccc2c[nH]nc2c1
75 to 81 | Nc1cccc(NS(N)(=O)=O)c1
59 to 61 | CCOC(=O)c1cc(-c2ccccc2)ccc1N
334 to 336 | O=C(O)c1c[nH]nc1-c1ccncc1
179 to 181 | Cn1c(=O)c(CBr)nc2ccccc21
162 to 164 | O=C(O)c1ccccc1OCc1ccc(Cl)cc1Cl
207 to 209 | O=C(Nc1ccc(O)cc1)c1ccsc1
207 to 210 | Cc1csc(Sc2ccc(C(=O)O)cc2[N+](=O)[O-])n1
92 to 94 | COc1ccc2nc(Cl)c(C)cc2c1
81 to 83 | Cc1c(S(=O)(=O)Cl)oc2ccc(F)cc12
92 to 96 | Cc1cc(C(=O)C(C)Cl)c(C)n1-c1ccc(OC(F)F)cc1 (stereo not drawn)
183 to 185 | NC(=O)c1cc(Br)ccc1N
166 to 168 | Nc1cc(F)c(Br)cc1[N+](=O)[O-]
161 to 163 | CC(=O)c1ccc(Oc2ccc(C(=O)O)cc2)cc1
99 to 101 | Nc1cc(Cl)c(I)cn1

melting point [°C] | SMILES
117 to 119 | CCOC(=O)c1csc(Nc2ccc(OC)cc2)n1
166 to 175 | COC(=O)CCc1c(C)nn(-c2ccc(C(=O)O)cc2)c1C
153 to 155 | Cc1ccc(C)c(OCC(=O)NN)c1
69 to 71 | Nc1cccc(-c2noc(C3CC3)n2)c1
115 to 117 | O=C(c1ccc(F)cc1)c1ccc(Cl)cc1
274 to 276 | CS(=O)(=O)c1ccc(C(=O)O)cc1[N+](=O)[O-]
209 to 211 | COc1ccc2oc(C)c(C(=O)O)c2c1
88 to 90 | CON(C)S(=O)(=O)c1cc(N)ccc1Cl
212 to 214 | Cc1cc(C#N)ccc1Oc1ccc(C(=O)O)cc1
113 to 115 | O=C(c1cnoc1)c1ccccc1O
181 to 183 | CNc1ncc([N+](=O)[O-])cc1C#N
182 to 184 | Cc1oc2cc(O)ccc2c(=O)c1-c1ccccc1Cl
236 to 238 | Cc1nc(Cc2ccccc2)sc1C(=O)O
211 to 213 | CCn1c(S)nnc1-c1ccc(Cl)cc1
227 to 229 | Cc1nn(Cc2ccc(F)cc2)c2sc(C(=O)O)cc12
56 to 58 | Cc1ccc(Oc2ccc(N)cn2)cc1C
170 to 172 | O=C(O)c1ccc(Br)cc1I
134 to 136 | Nc1cc(N2CCCS2(=O)=O)ccc1O
119 to 121 | Nc1ccccc1CC(=O)O
129 to 131 | N#Cc1cc(N)cnc1N
172 to 174 | COc1ccccc1NS(=O)(=O)c1ccc(O)c(C(=O)O)c1
242 to 244 | O=C(O)c1cc2cccc(F)c2o1
153 to 155 | C#Cc1cccc(NC(N)=O)c1

melting point [°C] | SMILES
148 to 150 | Nc1nc2cc(Br)ccc2[nH]1
127 to 129 | O=S(=O)(Nc1cccc(O)c1)c1ccccc1
84 to 86 | Nc1ccccc1-c1nc(C2CC2)no1
181 to 183 | CN(C)S(=O)(=O)c1ccc(Cl)c(C(=O)O)c1
224 to 226 | O=C(O)c1cc(Cl)cc2cccnc12
109 to 111 | CS(=O)(=O)c1ccc(C2CNCCO2)cc1 (stereo not drawn)
147 to 149 | COC(=O)C(=O)Nc1ccc(C)cc1
195 to 197 | Nc1cc(-c2ccc([N+](=O)[O-])cc2)no1
161 to 163 | COc1ccc(-c2cc(N)on2)c(OC)c1OC
219 to 221 | CCNS(=O)(=O)c1ccc(C(=O)O)cc1
120 to 122 | Cc1noc(-c2ccccc2N)n1
61 to 63 | CC(=O)c1cnn(Cc2ccccc2)c1
120 to 122 | CCOC(=O)c1sc(-c2ccc(OC)c(OC)c2)cc1N
235 to 237 | Cc1oc2cc(O)ccc2c(=O)c1Oc1ccccc1
171 to 173 | Cc1nn(-c2ccc(F)cc2)c(C)c1CC(=O)O
242 to 244 | O=C(O)c1cc(-c2ccc(Cl)s2)nc2ccccc12
157 to 159 | NS(=O)(=O)c1cc(Cl)ccc1[N+](=O)[O-]
222 to 224 | Cc1ccc(-c2nnc(N)[nH]2)s1
198 to 200 | Nc1nc(-c2ccccc2Cl)c(-c2ccccc2Cl)s1
82 to 84 | CCC(=O)Nc1ccc(N)cc1
151 to 153 | COc1cccc(-n2c(CC(=O)NN)csc2=NCc2ccco2)c1

Second part, the compound before the results:

SMILES | melting point [°C]
N#CCC(=O)Nc1ccccc1Cl | 124 to 126
O=C(O)CCc1nccs1 | 123 to 125
OC1CCc2c(Cl)cccc21 (stereo not drawn) | 69 to 71
Cc1noc(C)c1CSCC(=O)O | 92 to 94
COc1ccc(C=CC(=O)O)cc1S(=O)(=O)N1CCOCC1 | 238 to 240
Cc1cc2c(cc1Br)NCC(C)O2 (stereo not drawn) | 93 to 95
NNC(=O)Cc1ccccn1 | 111 to 113
CC1CC(C)CC2(C1)NC(=O)N(CC(=O)O)C2=O (stereo not drawn) | 259 to 261
Sc1ccc(Cl)cn1 | 214 to 216
Cc1ncc(Cl)c(C(=O)O)n1 | 130 to 132
O=C(O)C=CC1CCOCC1 | 134 to 136
CC(C)COc1ccc(C(C)(C)C(=O)O)cc1 | 107 to 109
NC(=O)c1cccc(OCCC(=O)O)c1 | 196 to 198
CC(C)CN1C(=O)CN=C1S | < 17
N#Cc1nc(Cl)cc(N)c1N | 249 to 251
O=C(O)c1cc(N2CCNC2=O)ccc1F | 319 to 321
NC(=NO)c1ccccc1Cl | 87 to 91
N#Cc1ccc(N2CCC(N)CC2)cc1 | 84 to 86
Nc1sc2c(c1C(=O)NC1CC1)CCC2 | 170 to 172
O=C1COc2ccc(C(F)(F)F)cc2N1 | 165 to 167
Cc1cc(N2CCCS2(=O)=O)ccc1C(=O)O | 249 to 251
O=C(O)c1ccccc1N1CCCC1=O | 197 to 199
CN1C(=O)C(=O)c2ccc(F)cc21 | 137 to 139
CCc1c(C)sc(N)c1C#N | 103 to 105
N#Cc1cc2c([nH]c1=O)CCCC2 | 246 to 248
N#Cc1ccnc(-n2ccnc2)c1 | 148 to 150

SMILES | melting point [°C]
O=C(O)C1(c2ccc(Br)cc2)CCCC1 | 176 to 178
Nc1ccc2[nH]c(CCN3CCOCC3)nc2c1 | 201 to 203
O=C(O)CCOc1cccc(Br)c1 | 60 to 69
COc1ccc2[nH]c3c(c2c1)CCC3 | 119 to 121
Cc1ccc(C(=O)O)cc1S(N)(=O)=O | 275 to 277
CC(C)(C)c1noc2ncc(C(=O)O)cc12 | 207 to 209
O=C1COc2cc(S)c(Cl)cc2N1 | 256 to 258
NS(=O)(=O)N1CCOCC1 | 161 to 163
CC(=O)c1ccc(N2CCCCC2)c(F)c1 | 67 to 69
O=C(Nc1ccc(Cl)cc1)OCC(F)(F)F | 69 to 71
C/C(N)=C\C#N | 4 to 6
O=C(CCl)Nc1cc(S(=O)(=O)N2CCOCC2)ccc1Cl | 131 to 133
CC(Cl)C(=O)Nc1c(F)c(F)c(F)c(F)c1F (stereo not drawn) | 123 to 125
O=C1CCS(=O)(=O)O1 | 69 to 71
CN1CCc2nc(N)sc2C1 | 168 to 170
O=S(=O)(c1cccc(-c2nnc(S)n2-c2ccc(OC(F)(F)F)cc2)c1)N1CCOCC1 | 247 to 249
NC(Cc1ccccn1)=NO | 105 to 107
O=CC(C=O)SCc1ccccc1 | 128 to 130
C=CC(CC(=O)O)c1ccccc1 (stereo not drawn) | 39 to 41
O=C1NC(=O)C(CCSSCCC2NC(=O)NC2=O)N1 (stereo not drawn) | 236 to 238
O=S(=O)(F)CC1CCOCC1 | 53 to 55
CCOc1ccc2c(c1)CC(C(=O)O)CO2 (stereo not drawn) | 132 to 134
CNCc1c(Cl)ncnc1N(C)C | 43 to 45
NNC(=S)NCC(F)(F)F | 158 to 160
Cc1ccc(NC(N)=S)cc1C | 184 to 186
CCS(=O)(=O)c1ccccc1N1CCC(N)CC1 | 119 to 121

SMILES | melting point [°C]
Cc1cc[nH]c(=O)c1C(N)=O | 235 to 237
COCc1ccc(C(=O)O)cc1OC | 164 to 166
COc1cc(Br)c2c(c1)NC(=O)C2=O | 179 to 181
O=C(CCN1CCOCC1)c1cc2ccccc2o1 | 53 to 55
Sc1ncccc1Br | 199 to 201
O=C(O)CNC(=O)c1ccc(N2CCCC2=O)cc1 | 190 to 200
Cn1cc(S(=O)(=O)N2CCCC2)cc1C(=O)O | 219 to 221
O=C(O)C1CCCCC1C(=O)N1CCCC1 (stereo not drawn) | 119 to 121
CCC1(C)NC(=O)N(N)C1=O (stereo not drawn) | 153 to 155
O=[N+]([O-])c1cc(F)c(F)cc1[N+](=O)[O-] | 80 to 82
O=C(CBr)c1ccc(S(=O)(=O)N2CCCC2)cc1 | 121 to 123
CC(C)(O)CN1CCN(C(=O)OC(C)(C)C)CC1 | 33 to 35
COc1ccccc1C(N)(C(=O)O)C(F)(F)F (stereo not drawn) | 97 to 99
NC(=NO)c1ccc(N2CCN(c3ccc(F)cc3)CC2)nc1 | 191 to 193
Cc1cccc(C2(C(=O)O)CCC2)c1 | 95 to 97
[N-]=[N+]=NCC(=O)NCc1ccccc1 | 39 to 41
CSc1nn(C)c(N)c1C#N | 123 to 125
O=C(O)c1ccccc1CSc1nnc[nH]1 | 177 to 179
CC(C)c1ccc(C2(O)CCC(=O)CC2)cc1 | 134 to 136
CN(C)c1cccc(C(=O)NN)c1 | 99 to 101
FC(F)(F)Oc1ccc(-n2nnnc2S)cc1 | 123 to 125
NC(=O)c1cncc(O)c1 | 249 to 251
Cc1ccc(Cl)c(S(=O)(=O)Cl)c1 | 49 to 51
CC(CC(=O)O)S(=O)(=O)c1ccc(F)cc1 (stereo not drawn) | 126 to 128
